Measurements from the SangsterLogP compilation.

How the values were obtained:
[1] = method code SF-HPLC, from DOI: 10.1016/j.ejps.2004.08.007, PMID: 15567286; details: pH 7.4
[2] = method code SF, from DOI: 10.1016/j.ejps.2004.08.007, PMID: 15567286

Structure (SMILES) | logD [1] | logP [2]
CCCCCCCCOC(=O)Nc1cc[nH]c(=O)n1 | 3.3 | –
O=C(Nc1cc[nH]c(=O)n1)OC12CC3CC(CC(C3)C1)C2 | 2.9 | –
CCCCOC(=O)Nc1cc[nH]c(=O)n1 | 1.1 | –
CCOC(=O)Nc1cc[nH]c(=O)n1 | -0.09 | –
CC(C)(C)COC(=O)Nc1cc[nH]c(=O)n1 | 1.5 | –
CC(C)COC(=O)Nc1cc[nH]c(=O)n1 | 1.1 | –
COC(=O)Nc1cc[nH]c(=O)n1 | -0.55 | –
CCCCCCOC(=O)Nc1cc[nH]c(=O)n1 | 2.3 | –
O=Cc1ccc(C(=O)O)cc1 | – | 1.52
O=C(Nc1cc[nH]c(=O)n1)OCc1ccccc1 | 1.3 | –
